From US6287834A, “Characterization and use of an isolated uridine diphospho-glucuronosyltransferase” (Endorecherche, Inc., priority 1999, dated 2001) come the findings set out here.

For data set [1], the target named is T1, UGT2B17 (Homo sapiens, UniProt O75795).
T1 construct: cell homogenate
T1 sequence (O75795 24-530): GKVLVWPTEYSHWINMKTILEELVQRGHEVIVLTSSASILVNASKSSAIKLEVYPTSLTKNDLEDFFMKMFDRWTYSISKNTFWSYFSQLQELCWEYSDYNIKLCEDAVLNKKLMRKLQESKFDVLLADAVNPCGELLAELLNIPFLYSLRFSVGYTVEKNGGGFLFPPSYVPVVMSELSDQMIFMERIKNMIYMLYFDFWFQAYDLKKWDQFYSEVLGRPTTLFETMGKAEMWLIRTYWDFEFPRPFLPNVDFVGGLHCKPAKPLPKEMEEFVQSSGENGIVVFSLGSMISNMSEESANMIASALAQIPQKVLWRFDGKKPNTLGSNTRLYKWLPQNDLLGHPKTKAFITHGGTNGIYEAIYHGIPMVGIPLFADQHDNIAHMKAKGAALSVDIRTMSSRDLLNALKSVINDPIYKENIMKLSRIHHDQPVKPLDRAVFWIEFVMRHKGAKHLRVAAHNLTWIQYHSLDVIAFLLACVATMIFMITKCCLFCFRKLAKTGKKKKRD
Kind of data set: Second glucuronidation assay to determine the amount of enzyme activity (glucuronide formation). To be noted: for identified as major endogenous substrates of UGT2B17: 3α and 17β hydroxyandrogens; for Glucuronide Formation (pmol/min/mg protein): HK293-UGT2B17 cell homogenate, 6 μM [14C]UDPGA and 494 μM unlabelled UDPGA, 15 minutes at 30° C. In kind it is biochemical. How it is done: Stable Expression of UGT2B17. Human kidney 293 cells were grown in Dubelcco's modified Eagle's medium containing 4.5 g/l glucose, 10 mM HEPES, 110 μg/ml sodium pyruvate, 100 IU of penicillin/ml, 100 μg/ml of streptomycin and 10% fetal bovine serum (FBS) in a humidified incubator, with an atmosphere of 5% CO2, at 37° C. 5 μg of pBK-CMV-UGT2B17 was used to transfect HK293 cells using Lipofectin and following the manufacturer's instructions (Gibco BRL: Burlington, Canada). Forty-eight hours after transfection, stable transfectants were selected in a media containing 800 μg/ml G418.
Glucuronidation Assay Using Cell Homogenates. HK293 cells expressing UGT2B17 were suspended in a Tris buffered saline containing 0.5 mM DTT and were homogenized using a Brinkman polytron. Enzyme assays were performed using [^14 C] UDP-glucuronic acid ([…]), 500 μM of the various aglycones and 150 μg of protein from cell homogenates in 50 mM Tris-HCl (pH 7.5), 10 mM MgCl2, 100 μg/ml phosphatidylcholine and 8.5 mM saccharolactone in a final volume of 100 μl. The enzyme assays were terminated by adding 100 μl of methanol, and the tubes were centrifuged at 14,000 g for 1 minute to remove the precipitated proteins. 100 μl of the aqueous phase was applied onto thin layer chromatography (TLC) plates (0.25 mm thick silica gel, 60 F254 S) (EM Science, Gibbstown, N.J.) and then was chromatographed in a solvent of toluene:methanol:acetic acid in the proportion of 7:3:1. The TLC plates were exposed for four days and the extent of glucuronidation was measured by Phosphorimager (Molecular Dynamics).
In the second assay, the substrate was exposed to […]

In data set [2] the target is T1, UGT2B17. The data set can be described thus: Kinetic analysis of UGT2B17 specificity (Lineweaver-Burk plots, FIGS. 4A and 4B). In kind it is biochemical. The procedure:
to FIGS. 4A and 4B are Lineweaver-Burk plots of ADT and DHT, and 3α-DIOL and testosterone (TESTO), respectively; and
A kinetic analysis was also performed to further characterize the specificity of UGT2B17 for ADT, DHT, 3α-DIOL and testosterone.

Substrate in data set [3]: O=C(O)[C@H]1O[C@H](OP(=O)(O)OP(=O)(O)OC[C@H]2O[C@@H](n3ccc(=O)[nH]c3=O)[C@H](O)[C@@H]2O)[C@H](O)[C@@H](O)[C@@H]1O
Kind of data set: cells, lysate or membranes. The following applies: other: 30° C., reaction linear for 30 minutes, pH 7.5.

The subject of data set [4] is androgen response element reporter in LNCaP cells. Kind of data set: Androgen response element reporter construct in LNCaP cells transfected with UGT2B17. The class given is cell-based, human. The text has this: Reducing androgen activity with UGT2B17. LNCaP cells were transfected with UGT2B17 in the presence of a reporter construct controlled by an androgen response element so as the expression of the reporter gene is indicative of androgenic activity.

In the case of `C[C@]12CC[C@H]3[C@@H](CC=C4C[C@@H](O)CC[C@@]43C)[C@@H]1CC[C@@H]2O` [Androst-5-ene-3β,17β-diol], the “identified as major endogenous substrates of UGT2B17” value (“identified” below) on UGT2B17 [1] is given as “major endogenous substrates”.

For `C[C@]12CCC(=O)C[C@@H]1CC[C@@H]1[C@@H]2CC[C@]2(C)[C@@H](O)CC[C@@H]12` [Dihydrotestosterone], at UGT2B17 [1], the “identified” value is on record as “major endogenous substrates” and the “Glucuronide Formation (pmol/min/mg protein)” value is 14 pmol/min/mg protein. For the same molecule, the “affinity of the enzyme based on Km values” (“affinity of the enzyme based” for short) on UGT2B17 [2] is on record as “similar”.

Turning to `C[C@]12CC[C@@H](O)C[C@H]1CC[C@@H]1[C@@H]2CC[C@]2(C)[C@@H](O)[C@H](O)C[C@@H]12` [5β-Androstane-3α,16α,17β-triol], the “Glucuronide Formation (pmol/min/mg protein)” value on UGT2B17 [1] is on record as 11 pmol/min/mg protein.

Turning to `C[C@]12CC[C@H](O)C[C@@H]1CC[C@@H]1[C@@H]2CC[C@]2(C)[C@@H](O)CC[C@@H]12` [5α-Androstane-3β,17β-diol], the “identified” value on UGT2B17 [1] is given as “major endogenous substrates”.

As for `Oc1ccccc1-c1ccccc1O` [o,o' biphenyl], the “Glucuronide Formation (pmol/min/mg protein)” value on UGT2B17 [1] worked out at 7 pmol/min/mg protein.

`C[C@]12CC[C@@H](O)C[C@@H]1CC[C@@H]1[C@@H]2[C@@H](O)C[C@]2(C)[C@@H](O)CC[C@@H]12` [5α-Androstane-3α,11β,17β-triol]: on UGT2B17 [1], the “Glucuronide Formation (pmol/min/mg protein)” value came to 8 pmol/min/mg protein.

Turning to `Oc1ccc(-c2ccc(O)cc2)cc1` [p,p' biphenyl], on UGT2B17 [1], the “Glucuronide Formation (pmol/min/mg protein)” value was 5 pmol/min/mg protein.

As to `C[C@]12CC[C@@H](O)C[C@@H]1CC[C@@H]1[C@@H]2CC[C@]2(C)C(=O)CC[C@@H]12` [Androsterone], at UGT2B17 [1], the “identified” value is listed as “major endogenous substrates” and the “Glucuronide Formation (pmol/min/mg protein)” value stood at 5 pmol/min/mg protein. Also, on UGT2B17 [2], the “affinity of the enzyme based” value is on record as “similar”.

Consider `C[C@]12CC[C@@H](O)C[C@@H]1CC[C@@H]1[C@@H]2CC[C@]2(C)[C@@H](O)CC[C@@H]12` [5α-Androstane-3α,17β-diol], for which, on UGT2B17 [1], the “identified” value is “major endogenous substrates” and the “Glucuronide Formation (pmol/min/mg protein)” value worked out at 15 pmol/min/mg protein. At UGT2B17 [2], the “affinity of the enzyme based” value is given as “similar”.

As to `C[C@H](O)[C@H]1CC[C@H]2[C@@H]3CC[C@H]4C[C@H](O)CC[C@]4(C)[C@H]3CC[C@]12C` [5α-pregnane-3α,20α-diol], on UGT2B17 [1], the “Glucuronide Formation (pmol/min/mg protein)” value worked out at 8 pmol/min/mg protein.

As to `Oc1cccc2ccccc12` [l-naphtol], the “Glucuronide Formation (pmol/min/mg protein)” value at UGT2B17 [1] is 7 pmol/min/mg protein.

Take `O=[N+]([O-])c1ccc(O)cc1` [p-nitrophenol]: the “Glucuronide Formation (pmol/min/mg protein)” value on UGT2B17 [1] is 4 pmol/min/mg protein.

On to `C[C@]12CC[C@@H](O)C[C@H]1CC[C@@H]1[C@@H]2CC[C@]2(C)C(=O)CC[C@@H]12` [Etiocholanolone], for which, at UGT2B17 [1], the “Glucuronide Formation (pmol/min/mg protein)” value was found to be 13 pmol/min/mg protein.

As for `C[C@]12CC[C@@H](O)C[C@H]1CC[C@@H]1[C@@H]2CC[C@]2(C)[C@@H](O)CC[C@@H]12` [5β-Androstane-3α,17β-diol], the “Glucuronide Formation (pmol/min/mg protein)” value on UGT2B17 [1] is 14 pmol/min/mg protein.

For the molecule `C[C@]12CC[C@H]3[C@@H](CCC4=CC(=O)CC[C@@]43C)[C@@H]1CC[C@@H]2O` [Testosterone], on UGT2B17 [1], the “identified” value is given as “major endogenous substrates” and the “Glucuronide Formation (pmol/min/mg protein)” value came to 9 pmol/min/mg protein. In addition, the “affinity of the enzyme based” value on UGT2B17 [2] is recorded as “similar”.

In the case of `C[C@]12CC[C@@H](O)C[C@@H]1CC[C@@H]1[C@@H]2[C@H](O)C[C@]2(C)[C@@H](O)CC[C@@H]12` [5α-Androstane-3α,11α,17β-triol], the “Glucuronide Formation (pmol/min/mg protein)” value at UGT2B17 [1] was 5 pmol/min/mg protein.

Consider `C=CCc1ccc(O)c(OC)c1` [Eugenol], for which the “Glucuronide Formation (pmol/min/mg protein)” value at UGT2B17 [1] was determined as 38 pmol/min/mg protein.

B1: UGT2B17 (Homo sapiens) (protein)
chain: T1 sequence (O75795 24-530)
With B1, the Michaelis constant (Km) in data set [3] was found to be 200 µM.

B2: uridine diphospho-glucuronosyltransferase 2B17 (protein)
chain: MSLKWMSVFLLMQLSCYFSSGSCGKVLVWPTEYSHWINMKTILEELVQRGHEVIVLTSSASILVNASKSSAIKLEVYPTSLTKNDLEDFFMKMFDRWTYSISKNTFWSYFSQLQELCWEYSDYNIKLCEDAVLNKKLMRKLQESKFDVLLADAVNPCGELLAELLNIPFLYSLRFSVGYTVEKNGGGFLFPPSYVPVVMSELSDQMIFMERIKNMIYMLYFDFWFQAYDLKKWDQFYSEVLGRPTTLFETMGKAEMWLIRTYWDFEFPRPFLPNVDFVGGLHCKPAKPLPKEMEEFVQSSGENGIVVFSLGSMISNMSEESANMIASALAQIPQKVLWRFDGKKPNTLGSNTRLYKWLPQNDLLGHPKTKAFITHGGTNGIYEAIYHGIPMVGIPLFADQHDNIAHMKAKGAALSVDIRTMSSRDLLNALKSVINDPIYKENIMKLSRIHHDQPVKPLDRAVFWIEFVMRHKGAKHLRVAAHNLTWIQYHSLDVIAFLLACVATMIFMITKCCLFCFRKLAKTGKKKKRD
Turning to B2, in data set [4], the “expression of the reporter gene (indicative of androgenic activity)” value was “decreased expression of the reporter gene”.

By Km is commonly meant the concentration of substrate that gives half-maximal velocity.
